# According to patent US11779575B2, “Use of Wnt inhibitor Wnt-C59 in preparation of drug for treating SCN5A mutation-induced dilated cardiomyopathy” (ZHONGSHAN HOSPITAL, FUDAN UNIVERSITY, priority 2020, dated 2023):
# Experiments:
# [1] = system: SCN5A heterozygous mutant mice (KI) with galactose aging and adriamycin-induced DCM; experiment: Heart size comparison after 2 weeks of drug intervention; format: in vivo; details: KI+Wnt-C59 group vs KI group; intragastric 1 mg/kg.d for 2 weeks
# Experimental: (§1) SPF-grade male C57BL/6 mice (purchased from Shanghai Jiesijie Experimental Animal Co., Ltd.) and SCN5A heterozygous mutant mice (aging 8 to 10 weeks and weighing 20 g to 25 g) were selected and intraperitoneally injected with d-galactose (500 mg/kg. d, sigma G5388) continuously for 8 weeks to construct aging models. Then the mice were intraperitoneally injected with adriamycin (4 intraperitoneal injections, total 10 mg/kg, Sangon A603456) to construct DCM models. After the models were constructed, cardiomyocytes were isolated from mice in each of the KI group and the WT group. The experimental scheme was approved by the Animal Management and Ethics Committee of Fudan University.
# (§2) After the ultrasonic test, there were 3 groups for study: WT group, KI group, and KI+Wnt-C59 group. Adriamycin was used for molding, and at the same time, the KI+Wnt-C59 group was intragastrically administered with Wnt-C59 (1 mg/kg.d, MCE HY-15659) every day, and the WT and KI groups were intragastrically administered with an equal volume of sterile normal saline as a control. Mice in each group received normal diet and water, and the administration was conducted continuously for 2 weeks. The body weight was measured and recorded for mice in each group every day.
# After 2 weeks of drug intervention, the mice were sacrificed and hearts thereof were collected for heart size comparison among the 3 groups.
# 46 types of tumor cells = details: cited from earlier work
# [2] = system: SCN5A heterozygous mutant mice (KI) with galactose aging and adriamycin-induced DCM; experiment: Evaluation on mouse cardiac function by echocardiography in aging and adriamycin-induced DCM model; format: in vivo; details: KI+Wnt-C59 group vs KI group, intragastric 1 mg/kg.d for 2 weeks
# Experimental: as §1
# as §2, with “Mice in each group received normal diet and water, and the administration was conducted continuously for 2 weeks.” left out
# The echocardiogram was measured 2 weeks after the administration, with a probe frequency of 30 MHz. Specifically, the mice were anesthetized with isoflurane, and an M-mode image was recorded when a heart rate of the mice was maintained at 450 to 500 beats/min. […]
smiles,measurement,setting,value
Cc1cc(-c2ccc(CC(=O)Nc3ccc(-c4cccnc4)cc3)cc2)ccn1 [Wnt-C59],heart size,[1],significantly smaller
same,proliferation of tumor cells,46 types of tumor cells,significantly inhibit
same,"cardiac function (left ventricular ejection fraction, LVEF)",[2],significantly improved
